Reference: patent publication US4302458A, “Phthalidyl-isoquinoline derivatives” (Laborec Laboratoire de Recherches Biologiques, priority 1979, dated 1981)

Experiments:
[1] = Acute toxicity (LD 50), oral route, mice; conditions: mouse, in vivo
Protocol: (§1) The toxicity was determined in the conventional manner.

histidine decarboxylase = assay: Histidine decarboxylase activity of guinea-pig kidneys after in vivo administration; conditions: for Activity expressed in % inhibition of the enzyme: guinea-pig renal enzyme, sacrificed five hours after administration, vs control animals
Source text: The activity of the compound 458 L was compared with that of tritoqualine, which is, to the Applicants' knowledge, the only product used therapeutically for this objective. The technique for measuring the histadine decarboxylase activity of guinea-pig kidneys has been described by B. Kosmicki et al (J. Pharmacol. Paris 1974-5-3-331-342). The guinea-pigs were sacrificed five hours after administering the substances under investigation. The percentage reduction in the activity of the renal enzyme of the treated animals was determined with respect to control animals.

mice = conditions: mouse, in vivo
Protocol: as §1

| Compound | LD50 [1] [mg/kg] | Activity expressed in % inhibition of the enzyme (histidine decarboxylase; dosage 10 mg/kg) [%] | Activity expressed in % inhibition of the enzyme (histidine decarboxylase; dosage 20 mg/kg) [%] | Activity expressed in % inhibition of the enzyme (histidine decarboxylase; dosage 40 mg/kg) [%] | Activity expressed in % inhibition of the enzyme (histidine decarboxylase; dosage 60 mg/kg) [%] | in vivo inhibition of histidine decarboxylase (in words) (histidine decarboxylase; in vivo) | chronic toxicity (tolerance) (mice) |
| --- | --- | --- | --- | --- | --- | --- | --- |
| CCOc1c(N)c2c(c(OCC)c1OCC)C(C1c3c(cc(OC)c(OC)c3OC)CCN1C)OC2=O (centres unmarked) [458 L, 2-methyl-6,7,8-trimethoxy-1[4,5,6-triethoxy-7-amino-3-phthalidyl]-1,2,3,4-tetrahydro-isoquinoline] | ~6000 | 14 | 21 | 31 | 41 | inhibiting in vivo the action of the enzyme histidine decarboxylase | well tolerated |
| CCOc1c(N)c2c(c(OCC)c1OCC)C(C1c3c(cc4c(c3OC)OCO4)CCN1C)OC2=O (centres unmarked) [Tritoqualine, tritoqualine, reference compound] |  | 10 | 20 | 20 | 22 |  |  |
